Measured values: patent US20070190187A1, “FORMULATION FOR ENHANCED DELIVERY OF PHENETHYLAMINE” (priority 2006, published 2007)

Test: co-administration of phenylethylamine with moiety/moieties that inhibit the enzyme MAO-B
Type: in vivo
Conditions: co-administered with a moiety/moieties that inhibited the effects of the enzyme MAO-B
Source text: Therefore, the combination of phenylethylamine or derivative thereof and the MAO-B enzyme inhibitor may be formulated as a dietary supplement, other foodstuff, a pharmaceutical, a topical or transdermal compound or a vaccine. The Dietary Supplement Health and Education Act of 1994, commonly referred to as DSHEA, defines “dietary supplement” as any product (except tobacco) that contains at least one of the following: (1) a vitamin, (2) a mineral, (3) an herb or botanical, (4) an amino acid, (5) a dietary substance “for use to supplement the diet by increasing total dietary intake,” or (6) any concentrate, metabolite, constituent, extract, or combination of any of the aforementioned ingredients. Examples of dietary supplements include, but are not limited to nutritional products; sports performance products, including ergogenic sports performing products; weight loss products; and meal replacement products. Dietary supplements may exist in various forms, including, but not limited to tablets, capsules, caplets, powders, drinks including shakes, and solid food items including snack bars, etc. For purposes of the present invention, a foodstuff is defined as a substance that can be used or prepared for use as food or extracted from food.

Q: Which results are given for `NCCc1ccccc1` [phenylethylamine, Phenethylamine]?
A: amount of phenethylamine absorbed into the bloodstream, cells and tissue: increased amount; amount of phenethylamine allowed to reach the brain and period of time per dose administered before it is metabolized: a greater amount of phenethylamine or a derivative thereof, is allowed to reach the brain for a greater period of time
